Measured values as given in patent US20110160260A1, “Method of Treating a Neurodegenerative Disorder” (Chung Shan Medical University, priority 2009, published 2011).

What was measured:
Assay type in all cases: in vivo, Wistar rats
[1] = system: MPTP-lesioned rats (Parkinson's disease animal model); test: Episodic-like memory test in MPTP-lesioned rats
Method: (§1) Thirty-nine male Wistar rats (306.2±0.9 g; BioLASCO Taiwan Co., Ltd.) were used as experimental animals in the present invention. All experimental procedures were performed according to the NIH Guide for the Care and Use of Laboratory Animals and were approved by the Animal Care Committee of the Chung Shan Medical University (IACUC approval No.: 434). All animals underwent stereotaxic surgery and MPTP were injected into the substantia nigra pars compacta (SNc) in the animals to establish Parkinson's disease animal model. One day after the surgery, the rats received daily dose of intraperitoneal (i.p.) injections of D-cycloserine (DCS) (0, 5, or 10 mg/kg/day) or saline at 18:00 for 13 days. The animals were divided respectively into groups of experimental group 0 (E0), receiving MPTP+saline, experimental group 1 (E1), receiving MPTP+DCS 5 mg/kg/day, experimental group 2 (E2), receiving MPTP+DCS 10 mg/kg/day and Sham-operated group/control group (CR), receiving saline (1 ml/kg/day, i.p.) (also called control group or Sham+saline group). The descriptions of “control group, experimental group 0, experimental group 1 and experimental group 2” were used below.
(§2) For the brain surgery, all animals were intraperitoneal injected with Zoletil (2 mg/kg; Virbac, Carros, Franc) and received stereotaxic surgery after anesthetization. MPTP-HCl (1 μmol in 2 μl of saline; Sigma, Mo., USA) (Da Cunha et al., Behav Brain Res, 2001, 124:9-18; Gevaerd et al., Brain Res Bull, 2001, 55: 101-6) or saline (2 μl) were microinjected into the substantia nigra pars compacta (SNc).
The episodic-like memory test was performed in an open field (60×60×40 cm, without roof allowing rats to aware external distal cues), 13 days after the MPTP lesion. The floor of the open field was divided into 9 areas of equal size. A video camera was mounted 160 cm above the center of the open field to record and analysis the behavior of rats. Two different sets of objects made of metal or plastic were used in the experiment. The objects weighed about 950 g and therefore, they were unmovable by the rats. The two objects differed in the diameter of base, height, color, shape, and surface texture (the metal object: column in shape, 6.5 cm in diameter, 12 cm high, silver-colored, smooth surface; the plastic object: cuboid in shape, a 7.5×5 cm cross section, 15 cm high, pellucid-colored, rough surface). One day before the test, rats were placed individually into the open field for twice and allowed to explore it (once for 5 min), with a 4 h interval, for adapting to the testing environment.
The procedure of episodic-like memory test was consistent with previous reported research (Li and Chao., Neurobiol Learn Mem 2008; 89:192-8). The method comprised two sample trials and one testing trial. In the first sample trial, the rats were placed in the open field with four identical objects (FIG. 1A, upper left), and allowed to explore them for 5 min. After an interval of 60 min, the rats were put into the same open field again and received the second sample trial for 5 min, wherein the objects were replaced with another objects and the spatial configuration was changed (FIG. 1A, lower left). After an additional interval of 60 min, the rats received a testing trial, wherein two identical objects from sample trial 1 (the “old” objects; “O”) and two identical objects from sample trial 2 (the “recent” objects; “R”) were presented. In the testing trial, animals encountered a mixed set consisting of two “O” and two “R” objects. One object from each of the two sets of objects was placed in the “same” location as in the sample trials (Os and Rs). The other two objects were “displaced” to new locations (Od and Rd) (FIG. 1A, lower right). Time spent on exploring the objects was recorded.

[2] = system: DAergic neurons in striatum and SNc of MPTP-lesioned rats; test: Tyrosine hydroxylase (TH) immunostaining of striatum and SNc, image analysis
Method: as §1, §2
One day after the test of episodic-like memory, rats were sacrificed under deep anesthesia by CO2. For histological assessment, 5-6 randomly selected rats per group were perfused cardiacly with 4% paraformaldehyde in phosphate-buffered saline (PBS), and the brains were removed rapidly and post-fixed in 20% sucrose solution with 4% paraformaldehyde at 4° C. […]
A microscope (ZEISS AXioskop2, Germany) disposed with a CCD (Optronics, USA) and the Image Pro Plus Software 6.0 (Media Cybernetics, CA, USA) was used for observation. […] The gray level of a given area of interest was measured, and the background staining measured in non-immunoreactive corpus callosum was subtracted. […] The somas of TH immunoreactive neurons located in this area were counted. The density of activated microglia was measured, according to the methods described in the literature (Sugama S, et al., Brain Res, 2003, 964: 288-94). […] Then, the numbers of activated microglial cells in the SNc, striatum, and hippocampus were counted in the areas of interest (measuring 18,769, 36,477, and 18,769 μm^2, respectively). […]

[3] = system: activated microglia in SNc, striatum and hippocampus of MPTP-lesioned rats; test: OX-6 (MHC class II) immunostaining, density of activated microglia
Method: as §1, §2
One day after the test of episodic-like memory, rats were sacrificed under deep anesthesia by CO2. For histological assessment, 5-6 randomly selected rats per group were perfused cardiacly with 4% paraformaldehyde in phosphate-buffered saline (PBS), and the brains were removed rapidly and post-fixed in 20% sucrose solution with 4% paraformaldehyde at 4° C. The frozen coronal brain sections were cut into 30 μm and further immunostained with mouse monoclonal antibodies against rat tyrosine hydroxylase (TH) (1:2000; Zymade, USA) or rat MHC class II (OX-6; 1:200; BD Biosciences Pharmingen, CA, USA) at 4° C. overnight, identical to the method used in our previous report (Wang, Wu, Liou, et. al, Behav Neurosci, 2009). In sections containing hippocampus, neurons in the hippocampus was identified by Nissl staining method.
A microscope (ZEISS AXioskop2, Germany) disposed with a CCD (Optronics, USA) and the Image Pro Plus Software 6.0 (Media Cybernetics, CA, USA) was used for observation. The three square areas (measuring 36,477, 18,769, and 2,354 μm^2) were applied respectively to determine the relative optical density of TH immunoreactivity in the striatum and the neuronal density in the SNc and hippocampal CA1 area. The images of TH staining were converted to the gray scale for measuring the density of DAergic projections. The gray level of a given area of interest was measured, and the background staining measured in non-immunoreactive corpus callosum was subtracted. […] The somas of TH immunoreactive neurons located in this area were counted. The density of activated microglia was measured, according to the methods described in the literature (Sugama S, et al., Brain Res, 2003, 964: 288-94). […] Then, the numbers of activated microglial cells in the SNc, striatum, and hippocampus were counted in the areas of interest (measuring 18,769, 36,477, and 18,769 μm^2, respectively). […]

[4] = system: pyramidal neurons in hippocampal CA1 area of MPTP-lesioned rats; test: Nissl staining of hippocampal CA1 pyramidal cell layer, neuronal density; conditions: DCS 10 mg/kg/day
Method: Thirty-nine male Wistar rats (306.2±0.9 g; BioLASCO Taiwan Co., Ltd.) were used as experimental animals in the present invention. All experimental procedures were performed according to the NIH Guide for the Care and Use of Laboratory Animals and were approved by the Animal Care Committee of the Chung Shan Medical University (IACUC approval No.: 434). All animals underwent stereotaxic surgery and MPTP were injected into the substantia nigra pars compacta (SNc) in the animals to establish Parkinson's disease animal model. One day after the surgery, the rats received daily dose of intraperitoneal (i.p.) injections of D-cycloserine (DCS) (0, 5, or 10 mg/kg/day) or saline at 18:00 for 13 days. […]
A microscope (ZEISS AXioskop2, Germany) disposed with a CCD (Optronics, USA) and the Image Pro Plus Software 6.0 (Media Cybernetics, CA, USA) was used for observation. […] The gray level of a given area of interest was measured, and the background staining measured in non-immunoreactive corpus callosum was subtracted. […] The somas of TH immunoreactive neurons located in this area were counted. The density of activated microglia was measured, according to the methods described in the literature (Sugama S, et al., Brain Res, 2003, 964: 288-94). […]

N[C@@H]1CONC1=O [DCS, D-4-amino-3-isoxazolidone]
function of episodic-like memory after MPTP lesion ([1]; DCS 10 mg/kg/day): recovered
time exploring old object, same location (Os) vs different location (Od), paired t-test ([1]; MPTP+DCS 5 mg/kg/day (E1)): had the trend of significance
time exploring recent object, displaced (Rd) vs same place (Rs), paired t-test ([1]; MPTP+DCS 5 mg/kg/day (E1)): no differences between exploring Rs and exploring Rd
total exploration time in the test trial ([1]; MPTP+DCS 5 mg/kg/day i.p. for 13 days (E1)): 54.4 ± 5.9 s
time exploring recent object, displaced (Rd) vs same place (Rs), paired t-test ([1]; MPTP+DCS 10 mg/kg/day (E2), P<0.001): spent a longer time exploring the displaced object (Rd)
time exploring old object, same location (Os) vs different location (Od), paired t-test ([1]; MPTP+DCS 10 mg/kg/day (E2), P<0.05): spent a longer time exploring the old object placed in the same location (Os)
total exploration time in the test trial ([1]; MPTP+DCS 10 mg/kg/day i.p. for 13 days (E2)): 25.4 ± 4.3 s
MPTP-induced reduction in relative optical density of TH immunoreactivity in the striatum ([2]; DCS 5 mg/kg/day): blocked
MPTP-induced reduction in the density of DAergic neurons in the SNc ([2]; DCS 5 mg/kg/day): blocked
MPTP-induced reduction in relative optical density of TH immunoreactivity in the striatum ([2]; DCS 10 mg/kg/day): blocked
MPTP-induced reduction in the density of DAergic neurons in the SNc ([2]; DCS 10 mg/kg/day): blocked
MPTP-induced microglial activation in the SNc ([3]; DCS 5 mg/kg/day): suppressed
MPTP-induced microglial activation in the hippocampus ([3]; DCS 5 mg/kg/day): suppressed
MPTP-induced microglial activation in the SNc ([3]; DCS 10 mg/kg/day): suppressed
MPTP-induced microglial activation in the hippocampus ([3]; DCS 10 mg/kg/day): suppressed
microglial activation in the striatum ([3]; DCS 5 and 10 mg/kg/day groups vs other groups): no significant difference between the groups
MPTP-induced decrease of neuronal density in the pyramidal cell layer of hippocampal CA1 area [4]: blocked
